Values quoted from earlier work in patent publication US9163134B2, “Highly functional additive for polymerization and method for preparing vinyl chloride seeds using the same” (LG CHEM, LTD., priority 2011, dated 2015).
Values after ≈ are worked out from the molar mass of the structure shown.

Solubility in water [µg/mL] | Solubility in water (mg/L) | SMILES
37 (≈ 0.234 mM) | – | CCCCCCCCCCO [C10H21—OH]
6260 (≈ 61.3 mM) | – | CCCCCCO [C6H13—OH]
– | ∞ | CCO [C2H5—OH]
540 (≈ 4.15 mM) | – | CCCCCCCCO [C8H17—OH]
